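Test compounds were applied to cells in 96-well plates for 48 hours at 5 doses. TGI marks complete inhibition of growth.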 Where a SMILES comes first, the peptide text is derived from it. The star is where a group is joined. Cbz = O=C(OCc1ccccc1)*; NHNH2 = NN*
Assays:
Experiment in all cases: growth of human tumour cells (NCI), 48 h
ACHN renal = system: ACHN renal
BT-549 breast = system: BT-549 breast
EKVX NSCLC = system: EKVX NSCLC
LOX IMVI melanoma = system: LOX IMVI melanoma
OVCAR-3 ovarian = system: OVCAR-3 ovarian
RXF 393 renal = system: RXF 393 renal
SNB-75 CNS = system: SNB-75 CNS
DU-145 prostate = system: DU-145 prostate
HOP-62 NSCLC = system: HOP-62 NSCLC
SK-MEL-28 melanoma = system: SK-MEL-28 melanoma

| Structure (SMILES) | TGI (ACHN renal) [µM] | TGI (BT-549 breast) [µM] | TGI (EKVX NSCLC) [µM] | TGI (LOX IMVI melanoma) [µM] | TGI (OVCAR-3 ovarian) [µM] | TGI (RXF 393 renal) [µM] | TGI (SNB-75 CNS) [µM] | TGI (DU-145 prostate) [µM] | TGI (HOP-62 NSCLC) [µM] | TGI (SK-MEL-28 melanoma) [µM] |
| --- | --- | --- | --- | --- | --- | --- | --- | --- | --- | --- |
| O=C(Cc1ccc([N+](=O)[O-])cc1)OCC#CCOC(=O)Cc1ccc([N+](=O)[O-])cc1 | > 10 | > 10 | > 10 | > 10 | > 10 | > 10 | > 10 |  |  |  |
| NC1CNC(=O)c2c(Cl)sc(Cl)c21 (stereo not given) | > 100 |  | > 100 | > 100 | > 100 | > 100 | > 100 | > 100 | > 100 | > 100 |
| Brc1cccc(N=NN2CCCC2)c1 | > 100 | > 100 | > 100 | > 100 | > 100 | > 100 | > 100 | > 100 | > 100 |  |
| CCNC(=O)C1CCCN1C(=O)C(CCCN=C(N)N)NC(=O)C(CC(C)C)NC(=O)C(Cc1c[nH]c2ccccc12)NC(=O)C(Cc1ccc(O)cc1)NC(=O)C(CO)NC(=O)C(Cc1c[nH]c2ccccc12)NC(=O)C(Cc1cnc[nH]1)NC(=O)C1CCC(=O)N1 (stereo not given) | > 100 | > 100 | > 100 |  | > 100 | > 100 | > 100 | > 100 | > 100 |  |
| Nc1ccc2[nH]c(-c3cccc(Cl)c3)cc(=O)c2c1 | > 100 | > 100 | > 100 |  |  |  | > 100 |  | > 100 | > 100 |
| CC1(C)CNC(=O)C2(C=NC(C)(C)CNC(=O)C3(C=N1)CCCO3)CCCO2 (stereo not given) | > 10 | > 10 | > 10 |  | > 10 | > 10 | > 10 | > 10 | > 10 | > 10 |
| CC1(CNCc2ccccc2)CC(CCc2ccccc2)N(C(=O)c2ccc([N+](=O)[O-])cc2)C1Cc1ccc(O)cc1 (stereo not given) | 24.8 | 31.3 | 31 | 26.2 | 24.6 | 17.4 |  | 28.5 | 31.1 | > 100 |
| COC(=O)/C=C/c1cc(OC)c(OC)c(OC)c1 | > 100 |  | > 100 | > 100 | > 100 | > 100 | > 100 |  | > 100 | > 100 |
| O=C(O)C(CO)NC(=O)n1c2ccccc2c2ccccc21 (stereo not given) | > 100 |  | > 100 | > 100 | > 100 | > 100 |  |  | > 100 | > 100 |
| COc1ccc(Nc2nc3c([nH]2)c(=O)n(C)c(=O)n3C)cc1 |  |  | > 10 | > 10 |  | > 10 | > 10 | > 10 | > 10 | > 10 |
| CCC(C)C(=O)OC1CC2(C)C(c3ccoc3)OC(=O)CC23OC2(C)OC34C(OC(=O)C(C)C)C3(O)C(OC(=O)C5(C)OC5C)C5(C)CC3(O)C(C)(C5CC(=O)OC)C14O2 (stereo not given) | > 100 | > 100 | > 100 | > 100 |  |  | > 100 | > 100 |  | > 100 |
| O=C(N/N=C/c1cc(Br)cc(Br)c1[O-])c1ccccc1O.O=C(N/N=C/c1cc(Br)cc(Br)c1[O-])c1ccccc1O.[Fe+2] | 21.1 |  | 50.3 | 22.7 | 25.8 | 20.6 | 27.7 |  | 8.53 | 21.6 |
| CN(C)CCn1c(=O)c2ccc(NCCCN(C)CCCNc3ccc4c(=O)n(CCN(C)C)c(=O)n5c6ccc([N+](=O)[O-])cc6c(=O)c3c45)c3c(=O)c4cc([N+](=O)[O-])ccc4n(c1=O)c23 | 1.21 | 0.176 | 1.32 |  | 1.31 |  | 0.195 | 0.39 | 0.842 | 0.553 |
| NC(=O)C(=CNC(=S)c1ccncc1)C(N)=O | > 100 | > 100 | > 100 | > 100 | > 100 | > 100 |  | > 100 | > 100 |  |
| Cn1c([O-])nc(-n2cc[n+](C)c2)cc1=O | > 100 | > 100 | > 100 | > 100 | > 100 | > 100 |  | > 100 | > 100 | > 100 |
| NC(N)=Nc1ncccc1[N+](=O)[O-] |  |  |  | > 100 | 66.5 | > 100 | > 100 |  | > 100 | > 100 |
| C=CCOCCCCC(C(C)=O)C(=O)OC (stereo not given) | > 100 |  |  | > 100 | > 100 | > 100 | > 100 | > 100 |  | > 100 |
| COc1ccc2cc(NC(=O)N/N=C\c3ccc(Cl)cc3)ccc2c1 | > 100 | > 100 | > 100 | > 100 | > 100 |  | > 100 | > 100 | > 100 | > 100 |
| COC(=O)CC(NC(=O)OCc1ccccc1)C(=O)NC(CC(=O)OC)C(=O)NC(CC(=O)OC)C(=O)NC(CC(=O)OC)C(=O)NC(CC(=O)OC)C(=O)NC(CC(=O)OC)C(=O)NN (stereo not given) (Cbz-D(OMe)D(OMe)D(OMe)D(OMe)D(OMe)D(OMe)-NHNH2; configuration not given here) | > 100 | > 100 |  | > 100 |  |  | > 100 |  | > 100 | > 100 |
| CN(C)S(=O)(=O)Nc1nnc(S(N)(=O)=O)s1 | > 100 | > 100 | > 100 |  | > 100 | > 100 | > 100 | > 100 | > 100 | > 100 |
| CC(=S)N=Cc1c(O)cc(C)oc1=O | > 100 | > 100 | > 100 | > 100 | > 100 | > 100 | > 100 | > 100 | > 100 |  |
| O=c1[nH]nc(-c2ccccc2)c2[nH]c(-c3ccccc3)cc12 |  | > 100 | > 100 | > 100 | > 100 | > 100 | > 100 | > 100 | > 100 |  |
| O=C(CSc1n[nH]c(=O)[nH]c1=O)NNC(=O)c1cccc2nc3ccccc3nc12 | > 100 | 83.7 | > 100 | > 100 | > 100 | > 100 |  | > 100 | > 100 | > 100 |

| Structure (SMILES) | TGI (ACHN renal) [µM] | TGI (BT-549 breast) [µM] | TGI (EKVX NSCLC) [µM] | TGI (LOX IMVI melanoma) [µM] | TGI (OVCAR-3 ovarian) [µM] | TGI (RXF 393 renal) [µM] | TGI (SNB-75 CNS) [µM] | TGI (DU-145 prostate) [µM] | TGI (HOP-62 NSCLC) [µM] | TGI (SK-MEL-28 melanoma) [µM] |
| --- | --- | --- | --- | --- | --- | --- | --- | --- | --- | --- |
| CCOC(=O)/C(C#N)=N\Nc1ccc(-n2c(C)nc3ccccc3c2=O)cc1 | > 100 | > 100 | > 100 | > 100 | 82.4 |  | > 100 | > 100 | > 100 | > 100 |
| CC(=O)OCC(OC(C)=O)C1C[C@H]2O[C@@H]3[C@H](C[C@H]2O1)O[C@@]1(C[C@@H]3C)C[C@H](C)[C@@H]2O[C@]3(C[C@@H]2O1)C[C@H]1O[C@H]2[C@H](C)[C@H]4OC(=O)CC5CC[C@H]6OC7[C@H]8O[C@]9(CC[C@H]%10CC(O)(CO)[C@H](CC[C@H]%11C[C@@H](C)C(O)(CO)C(C[C@@H]4O[C@H]2C[C@H]1O3)O%11)O%10)CC8O[C@@H]7[C@@H](O9)[C@H]6O5 (stereo not given in full) | > 1 | 0.00923 | > 1 | > 0.414 | > 1 |  | > 1 | 0.0688 | > 1 | > 1 |
| OC1(c2ccc(Cl)cc2)c2ccc3ccccc3c2C2=N[C@H]3CCCC[C@@H]3N21 (stereo not given in full) | > 100 |  | 24 | 10.5 | 21.9 | 20.8 |  | 37.2 | 11.5 | > 100 |
| CC1(C(=O)O)CCCC1C(=O)O (stereo not given) | > 100 | > 100 | > 100 | > 100 | > 100 | > 100 |  | > 100 | > 100 | > 100 |
| COc1c(Br)cc(CC(N)=O)c(O)c1Br | > 100 |  | > 100 | > 100 | > 100 | > 100 | > 100 |  | > 100 | > 100 |
| COCC1OC(N2C(=O)NC(=O)[C@@H]3C=C4CCCCC4=C[C@@H]32)C(OC)C1OC (stereo not given in full) | > 100 | > 100 | > 100 | > 100 | > 100 |  | > 100 | > 100 | > 100 | > 100 |
| Brc1cc2nn(-c3ccccc3)nc2c2nonc12 | > 100 | > 100 | > 100 | > 100 | > 100 |  | > 100 | > 100 | > 100 | > 100 |
| CC1S/C(=N/c2nnc(-c3ccccc3)o2)NC1=O (stereo not given) | > 100 | > 100 | 85.2 | > 100 | 69.5 | > 100 |  | > 100 | > 100 | > 100 |
| Cc1cc2[nH]c3c(C#N)c4c(c(=O)n3c2cc1C)CCCC4 | > 100 | > 100 | > 100 | > 100 | > 100 |  |  | > 100 |  | > 100 |
| COC(=O)C1=Nc2c(C)nn(-c3ccccc3)c2N=C(c2ccc([N+](=O)[O-])cc2)C1 | > 10 | > 10 |  | > 10 | > 10 |  | > 10 | > 10 | > 10 | > 10 |
| COc1ccc2c(c1)CC1=C(O2)c2ccc(OC)cc2OC1 | 36.5 | 38.8 | 52.5 | 27.2 | 36.4 |  | 66.3 | > 100 | > 100 |  |
| COC(=O)C1CC2(c3ccccc3)C(=O)c3ccccc3N2O1 (stereo not given) | > 100 |  | > 100 | 81.7 | > 100 |  | > 100 |  | > 100 | > 100 |
| O=[N+]([O-])c1ccc(-c2ccc(-c3csc(Nc4ccccn4)n3)o2)cc1 | > 100 |  |  | > 100 | > 100 |  | > 100 |  | 62.4 | > 100 |
| COc1ccc(-c2c(C#N)c(N)nc3c2CCS(=O)(=O)c2ccccc2-3)cc1 | > 100 | > 100 |  | > 100 |  |  | > 100 | > 100 |  | > 100 |
| CCOC(=O)C(CC#Cc1ccc(C#CCC(NC(C)=O)C(=O)OCC)cc1)NC(C)=O (stereo not given) | > 100 |  | > 100 | > 100 | > 100 | > 100 | > 100 | > 100 | > 100 | > 100 |
| O=C(O)C(CS)N=c1c2ccccc2n(O)c2ccccc12 (stereo not given) | > 100 |  | > 100 | > 100 | > 100 |  | > 100 |  | > 100 | > 100 |
| COc1ccc2c(c1)CN1C(=N2)CSC1c1ccccc1Cl (stereo not given) | 41.8 | 80.3 | 35.4 | 28.9 |  | 29.7 | 48.8 |  | > 100 | 26.9 |
| Cc1cc2ncc3c(=O)n(NS(=O)(=O)c4ccc(N)cc4)ccc3n2n1 | > 100 | > 100 | > 100 | > 100 | > 100 |  | > 100 | > 100 | > 100 | > 100 |
| CC1CC(=O)Nc2nc3ccccc3n21 (stereo not given) | > 100 | > 100 | > 100 | > 100 | > 100 | > 100 |  |  | > 100 |  |
| O=C1C=CC(=O)c2c(O)c(NCCc3ccc(O)cc3)c(Cl)c(O)c21 | > 10 | > 10 | > 10 | > 10 | > 10 |  | > 10 | > 10 | > 10 |  |
| O=c1c(-c2ccc(Cl)cc2)nnc2n(Cc3ccccc3)c3ccccc3n12 | > 100 | 57.2 | > 100 | > 100 |  | 40.2 | 44.9 | > 100 | 44.9 | > 100 |
| C=C1CC(C)(c2ccc(Nc3nc4ccccc4c4occc34)cc2)OC1=O (stereo not given) | 17.8 | 7.02 | 24.5 |  | 12.9 | 4.92 | 6.56 | 28.4 | 34 | 27.4 |
